In ChEMBL document CHEMBL1144888, “Synthesis, structure-activity relationship, and evaluation of SR141716 analogues: development of central cannabinoid receptor ligands with lower lipophilicity” (J Med Chem, 2003):

biological target: Cannabinoid receptor 1 (Rattus norvegicus, UniProt P20272); details: not given
Sequence (P20272 whole entry): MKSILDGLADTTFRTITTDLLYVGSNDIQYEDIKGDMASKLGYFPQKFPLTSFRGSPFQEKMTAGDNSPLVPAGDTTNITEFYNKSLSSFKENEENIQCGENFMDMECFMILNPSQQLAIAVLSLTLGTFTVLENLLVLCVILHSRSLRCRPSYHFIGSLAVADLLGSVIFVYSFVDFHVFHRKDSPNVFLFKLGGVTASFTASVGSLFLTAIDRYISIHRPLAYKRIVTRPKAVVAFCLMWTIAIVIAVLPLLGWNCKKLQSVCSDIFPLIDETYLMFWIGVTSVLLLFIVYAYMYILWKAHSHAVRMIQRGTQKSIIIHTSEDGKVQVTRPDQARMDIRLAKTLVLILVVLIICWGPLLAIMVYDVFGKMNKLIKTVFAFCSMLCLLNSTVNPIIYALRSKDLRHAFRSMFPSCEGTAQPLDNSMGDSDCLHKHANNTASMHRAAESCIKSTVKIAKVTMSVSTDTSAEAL

Ki [nM]	Compound
6.2	COc1ccc(-c2c(Br)c(C(=O)NN3CCCCC3)nn2-c2ccccc2Cl)cc1
104	Cc1c(C(=O)NN2CCCCC2)nn(-c2ccc(Cl)cc2Cl)c1-c1ccc(O)cc1
18.2	COc1ccc(-c2c(F)c(C(=O)NN3CCCCC3)nn2-c2ccccc2Cl)cc1
9	O=C(NN1CCCCC1)c1cc(-c2ccc(Cl)cc2)n(-c2ccc(Cl)cc2Cl)n1
5.2	COc1ccc(-c2c(Br)c(C(=O)NN3CCCCCC3)nn2-c2ccc(Cl)cc2Cl)cc1
390	Cc1c(C(=O)NN2CCCCC2)nn(-c2ccc(Cl)cc2Cl)c1-c1ccc(OC2CCCN2C(=O)OC(C)(C)C)cc1 (centres undefined)
440	COc1ccc(-c2c(C)c(C(=O)NN3CCCCC3)nn2-c2ccccc2OC)cc1
7.1	Cc1c(C(=O)NN2CCCCC2)nn(-c2ccc(Cl)cc2Cl)c1-c1ccc2c(c1)OCO2
1.4	O=C(NN1CCCCC1)c1nn(-c2ccc(Cl)cc2Cl)c(-c2ccc(Cl)cc2)c1Br
37.8	COc1ccc(-c2c(C)c(C(=O)NN3CCCCC3)nn2-c2ccccc2F)cc1
8	COc1ccc(-c2c(C)c(C(=O)NN3CCCCC3)nn2-c2ccccc2Cl)cc1
7	COc1ccc(-c2c(C)c(C(=O)NN3CCCCCC3)nn2-c2ccc(Cl)cc2Cl)cc1
4.5	Cc1c(C(=O)NN2CCOCC2)nn(-c2ccc(Cl)cc2Cl)c1-c1ccc(I)cc1

test system: not listed separately; test: Partition coefficient (logD7.4); details: octanol/water, pH 7.4

logD	Compound
5.14	O=C(NN1CCCCC1)c1cc(-c2ccc(Cl)cc2)n(-c2ccc(Cl)cc2Cl)n1
